For one molecule, IC50 results are on record in patent US20240083853A1, “HSD17B13 INHIBITORS AND USES THEREOF” (FL2022-001, Inc., priority 2020, published 2024).

This experiment addresses T1, Recombinant human HSD17B13 enzyme (Homo sapiens, UniProt Q7Z5P4).
T1 sequence (Q7Z5P4 20-300): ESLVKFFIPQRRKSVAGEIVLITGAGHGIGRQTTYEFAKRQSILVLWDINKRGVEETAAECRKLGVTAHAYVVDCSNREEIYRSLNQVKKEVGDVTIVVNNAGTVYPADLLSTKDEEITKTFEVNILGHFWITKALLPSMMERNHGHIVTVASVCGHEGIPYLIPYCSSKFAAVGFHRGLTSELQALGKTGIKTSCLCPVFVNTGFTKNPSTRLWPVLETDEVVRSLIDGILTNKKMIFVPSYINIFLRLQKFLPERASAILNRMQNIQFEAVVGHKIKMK
The experiment in a line: HSD17b13 NAD(P)H-Glo biochemical assay. The settings on record: 50 uM estradiol, 1 mM NAD+, NAD(P)H-Glo luminescence; read-out: HSD17β13 IC50. The method in brief: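 Recombinant human HSD17B13 in 20 mM Tris pH7.4 with 0.002% Tween-20 and 0.02% BSA was preincubated with inhibitor for 20 minutes at RT. The reaction ran 3 hours at 37° C with 50 uM estradiol and 1 mM NAD+ (final). NADH formed was detected by NAD(P)H-Glo luminescence after 1 hour at RT.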

In general, IC50 refers to the midpoint of a concentration-inhibition curve. As to `Oc1c(F)cc2nnn(-c3cnc(N4CC5(CCOCC5)C4)nc3)c2c1F` [Compound 42.1, 1-(2-(7-Oxa-2-azaspiro[3.5]nonan-2-yl)pyrimidin-5-yl)-5,7-difluoro-1H-benzo[d][1,2,3]triazol-6-ol], the IC50 is 1 to 30 µM.
